The values below come from US9533985B2, “Sulfonamide derivative and medicinal use thereof” (EA Pharma Co., Ltd., priority 2012, dated 2017).

Assay type in all cases: cell-based
Assay [1] addresses T1, α4β7 integrin (Homo sapiens (Human), UniProt P13612+P26010). In words: MAdCAM-1/α4β7 integrin binding inhibitory activity evaluation test (RPMI-8866 cell adhesion to MAdCAM-1/Fc). As to conditions: for Selectivity: IC50 in VCAM-1/α4β1 test divided by IC50 in MAdCAM-1/α4β7 test; for IC50: RPMI-8866 cells binding to recombinant mouse MAdCAM-1/Fc, no serum. Here is the method: The ability of test substances to inhibit the binding of a human B cell line, RPMI-8866, which is known to express α4β7 integrin, to MAdCAM-1 was measured. To 96-well microtiter plates, recombinant mouse MAdCAM-1/Fc (R&D systems) solution (0.75 μg/mL) diluted with buffer A (carbonate buffer solution, pH 9.6) was added at 50 μL/well, followed by incubation at 4° C. overnight. After washing once with PBS, Block Ace (Snow Brand Milk Products Company, Limited) was added at 150 μL/well, followed by incubation at room temperature for 2 hours. After removal, washing was conducted once with PBS. 100 μL of each test substance diluted with binding buffer (DMEM containing 40 mM HEPES, 0.2% BSA, and 4 mM MnCl2) to various concentrations and 100 μL of RPMI-8866 cells (2×10^6 cell/mL) were added to the plates coated with MAdCAM-1/Fc (5×10^5 cells/well), followed by incubation at 30° C. for 15 minutes to 60 minutes. After the cells were bound to each well, unbound cells were removed by washing with PBS. To the plates, buffer C (PBS containing 1.5% Triton X-100) was added at 50 μL/well to lyse the bound RPMI-8866 cells. To 30 μL of the cell lysate, 30 μL of Substrate Buffer (Promega, CytoTox 96 Non-Radioactive Cytotoxicity Assay) was added, and the reaction was allowed to proceed at room temperature in a dark place for 30 minutes. To each well, 30 μL of Stop Solution (Promega, CytoTox 96 Non-Radioactive Cytotoxicity Assay) was added, and the absorbance at 490 nm was measured by using a plate reader. Here, by the obtained absorbance, the activity of the lactate dehydrogenase (LDH) dissolved into the supernatant of each well was detected. In other words, the absorbance was proportional to the number of the RPMI-8866 cells bound to MAdCAM-1 and remaining on the plate. The test was duplicated. The binding ratios of the cells at various concentrations were determined, with the absorbance of a well containing no test substance taken as 100%. Then, the concentration IC50, at which 50% binding inhibition was achieved, was calculated. […] Note that the selectivity in the table was determined by dividing the IC50 value in VCAM-1/α4β1 Integrin Binding Inhibitory Activity Evaluation Test by the IC50 value in the MAdCAM-1/α4β7 integrin binding inhibitory activity evaluation test.

Another assay deals with α4β1 integrin (Homo sapiens (Human), UniProt P05556+P13612). As to the kind of experiment: VCAM-1/α4β1 integrin binding inhibitory activity evaluation test (Jurkat cell adhesion to VCAM-1/Fc). As to conditions: Jurkat cells binding to recombinant human VCAM-1/Fc. Here is the method: The ability of test substances to inhibit the binding of a human T-cell line, Jurkat, which is known to express α4β1 integrin, to VCAM-1 was measured. To 96-well microtiter plates, recombinant human VCAM-1/Fc (R&D systems) solution (1 μg/mL) diluted with buffer A (carbonate buffer, pH 9.6) was added at 50 μL/well, followed by incubation at 4° C. overnight. After washing once with PBS, Block Ace (Snow Brand Milk Products Company, Limited) was added at 150 μL/well, followed by incubation at room temperature for 2 hours. After removal, washing was conducted once with PBS. 100 μL of each test substance diluted with a binding buffer (DMEM containing 40 mM HEPES, 0.2% BSA, and 4 mM MnCl2) to various concentrations and 100 μL of the Jurkat cells (2×10^6 cell/mL) were added to the plates coated with VCAM-1/Fc (5×10^5 cells/well), followed by incubation at 30° C. for 15 minutes to 60 minutes. After the cells were bound to each well, unbound cells were removed by washing with PBS. To the plates, buffer C (PBS containing 1.5% Triton X-100) was added at 50 μL/well to lyse the bound Jurkat cells. To 30 μL of the cell lysate, 30 μL of Substrate Buffer (Promega, CytoTox 96 Non-Radioactive Cytotoxicity Assay) was added, and the reaction was allowed to proceed at room temperature in a dark place for 30 minutes. To each well, 30 μL of Stop Solution (Promega, CytoTox 96 Non-Radioactive Cytotoxicity Assay) was added, and the absorbance at 490 nm was measured by using a plate reader. Here, by the obtained absorbance, the activity of the lactate dehydrogenase (LDH) dissolved into the supernatant of each well was detected. In other words, the absorbance was proportional to the number of the Jurkat cells bound to VCAM-1 and remaining on the plate. The test was duplicated. The binding ratios of the cells at various concentrations were determined, with the absorbance of a well containing no test substances taken as 100%. Then, the concentration IC50, at which 50% binding inhibition was achieved, was calculated. […] Note that, among the compounds synthesized in the corresponding Examples, the compounds in the free form (Compounds A-1 to A-39) were used as the test compounds. Hereinafter, the same shall apply.

Assay [2] deals with T1, α4β7 integrin. In words: MAdCAM-1/α4β7 integrin binding inhibitory activity evaluation test in the presence of serum (1). The following applies: RPMI-8866 cells binding to mouse MAdCAM-1/Fc, human serum at final concentration of 50%; read-out: α4β7 with serum added, IC50. Here is the method:
The ability of test substances to inhibit the binding of a human B cell line, RPMI-8866, which is known to express α4β7 integrin, to MAdCAM-1 was measured. To 96-well microtiter plates, recombinant mouse MAdCAM-1/Fc (R&D systems) solution (1 μg/mL) diluted with buffer A (carbonate buffer, pH 9.6) was added at 50 μL/well, followed by incubation at 4° C. overnight. After washing once with PBS, Block Ace (Snow Brand Milk Products Company, Limited) was added at 150 μL/well, followed by incubation at room temperature for 2 hours. After removal, washing was conducted once with PBS. 100 μL of each test substance diluted with a binding buffer (DMEM containing 40 mM HEPES, 0.2% BSA, and 4 mM MnCl2) to various concentrations and 100 μL of RPMI-8866 cells (2×10^6 cell/mL) were added to plates coated with MAdCAM-1/Fc (5×10^5 cells/well) with human serum being contained at a final concentration of 50%, followed by incubation at 30° C. for 15 minutes to 60 minutes. After the cells were bound to each well, unbound cells were removed by washing with PBS. To the plates, buffer C (PBS containing 1.5% Triton X-100) was added at 50 μL/well to lyse the bound RPMI-8866 cells. To 30 μL of the cell lysate, 30 μL of Substrate Buffer (Promega, CytoTox 96 Non-Radioactive Cytotoxicity Assay) was added, and the reaction was allowed to proceed at room temperature in a dark place for 30 minutes. To each well, 30 μL of Stop Solution (Promega, CytoTox 96 Non-Radioactive Cytotoxicity Assay) was added, and the absorbance at 490 nm was measured by using a plate reader. Here, by the obtained absorbance, the activity of the lactate dehydrogenase (LDH) dissolved into the supernatant of each well was detected. In other words, the absorbance was proportional to the number of the RPMI-8866 cells bound to MAdCAM-1 and remaining on the plate. The test was duplicated. The binding ratios of the cells at various concentrations were determined, with the absorbance of a well containing no test substance taken as 100%. Then, the concentration IC50, at which 50% binding inhibition was achieved, was calculated.

SMILES strings stand for the structures.

Sequence of α4β1 integrin (P13612 34-1032): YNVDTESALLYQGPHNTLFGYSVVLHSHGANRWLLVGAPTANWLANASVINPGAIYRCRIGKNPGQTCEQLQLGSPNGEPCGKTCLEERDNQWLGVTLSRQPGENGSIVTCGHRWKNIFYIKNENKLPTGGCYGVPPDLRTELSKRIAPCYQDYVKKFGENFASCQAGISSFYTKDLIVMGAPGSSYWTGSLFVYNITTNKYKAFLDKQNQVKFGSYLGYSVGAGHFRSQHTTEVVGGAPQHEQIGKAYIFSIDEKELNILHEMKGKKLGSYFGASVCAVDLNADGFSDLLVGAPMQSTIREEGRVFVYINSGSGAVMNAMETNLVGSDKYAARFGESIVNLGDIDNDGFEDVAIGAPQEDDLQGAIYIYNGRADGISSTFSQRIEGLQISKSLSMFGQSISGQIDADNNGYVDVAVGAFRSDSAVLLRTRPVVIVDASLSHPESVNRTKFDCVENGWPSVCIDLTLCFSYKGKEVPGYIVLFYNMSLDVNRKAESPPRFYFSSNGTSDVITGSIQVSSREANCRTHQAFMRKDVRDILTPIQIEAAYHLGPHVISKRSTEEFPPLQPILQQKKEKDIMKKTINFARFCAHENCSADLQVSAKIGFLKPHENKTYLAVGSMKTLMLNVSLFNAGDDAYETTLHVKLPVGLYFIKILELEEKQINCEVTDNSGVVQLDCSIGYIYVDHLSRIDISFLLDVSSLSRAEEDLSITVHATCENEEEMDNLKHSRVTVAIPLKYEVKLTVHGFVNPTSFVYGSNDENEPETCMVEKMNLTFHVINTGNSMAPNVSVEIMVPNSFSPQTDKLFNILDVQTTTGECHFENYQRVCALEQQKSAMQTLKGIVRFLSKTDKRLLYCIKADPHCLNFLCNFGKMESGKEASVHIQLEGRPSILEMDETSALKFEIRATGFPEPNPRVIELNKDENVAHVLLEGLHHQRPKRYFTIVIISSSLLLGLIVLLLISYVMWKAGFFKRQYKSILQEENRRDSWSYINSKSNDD
Sequence of α4β1 integrin (P05556 21-798): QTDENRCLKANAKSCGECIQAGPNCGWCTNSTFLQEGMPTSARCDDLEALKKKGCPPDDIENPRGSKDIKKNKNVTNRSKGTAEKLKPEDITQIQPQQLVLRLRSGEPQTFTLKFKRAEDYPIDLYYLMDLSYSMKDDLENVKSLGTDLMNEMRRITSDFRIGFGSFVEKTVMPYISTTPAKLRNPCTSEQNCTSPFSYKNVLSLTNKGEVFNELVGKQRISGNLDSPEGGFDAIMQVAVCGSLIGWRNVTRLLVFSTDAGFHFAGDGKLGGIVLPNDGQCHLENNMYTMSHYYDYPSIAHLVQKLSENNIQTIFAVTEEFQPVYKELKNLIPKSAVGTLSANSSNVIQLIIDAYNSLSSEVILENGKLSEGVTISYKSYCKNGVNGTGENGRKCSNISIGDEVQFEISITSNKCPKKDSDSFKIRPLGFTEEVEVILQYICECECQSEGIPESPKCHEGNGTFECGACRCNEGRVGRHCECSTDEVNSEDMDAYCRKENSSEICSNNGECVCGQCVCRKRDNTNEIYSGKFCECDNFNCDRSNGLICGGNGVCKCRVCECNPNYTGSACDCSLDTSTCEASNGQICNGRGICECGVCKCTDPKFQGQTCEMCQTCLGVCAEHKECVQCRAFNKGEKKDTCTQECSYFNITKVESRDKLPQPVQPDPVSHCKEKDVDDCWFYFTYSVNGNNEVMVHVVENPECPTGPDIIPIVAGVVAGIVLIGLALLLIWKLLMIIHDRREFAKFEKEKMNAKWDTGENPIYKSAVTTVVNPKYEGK
T1 sequence (P13612 34-1032): as the sequence (P13612 34-1032) above
T1 sequence (P26010 20-798): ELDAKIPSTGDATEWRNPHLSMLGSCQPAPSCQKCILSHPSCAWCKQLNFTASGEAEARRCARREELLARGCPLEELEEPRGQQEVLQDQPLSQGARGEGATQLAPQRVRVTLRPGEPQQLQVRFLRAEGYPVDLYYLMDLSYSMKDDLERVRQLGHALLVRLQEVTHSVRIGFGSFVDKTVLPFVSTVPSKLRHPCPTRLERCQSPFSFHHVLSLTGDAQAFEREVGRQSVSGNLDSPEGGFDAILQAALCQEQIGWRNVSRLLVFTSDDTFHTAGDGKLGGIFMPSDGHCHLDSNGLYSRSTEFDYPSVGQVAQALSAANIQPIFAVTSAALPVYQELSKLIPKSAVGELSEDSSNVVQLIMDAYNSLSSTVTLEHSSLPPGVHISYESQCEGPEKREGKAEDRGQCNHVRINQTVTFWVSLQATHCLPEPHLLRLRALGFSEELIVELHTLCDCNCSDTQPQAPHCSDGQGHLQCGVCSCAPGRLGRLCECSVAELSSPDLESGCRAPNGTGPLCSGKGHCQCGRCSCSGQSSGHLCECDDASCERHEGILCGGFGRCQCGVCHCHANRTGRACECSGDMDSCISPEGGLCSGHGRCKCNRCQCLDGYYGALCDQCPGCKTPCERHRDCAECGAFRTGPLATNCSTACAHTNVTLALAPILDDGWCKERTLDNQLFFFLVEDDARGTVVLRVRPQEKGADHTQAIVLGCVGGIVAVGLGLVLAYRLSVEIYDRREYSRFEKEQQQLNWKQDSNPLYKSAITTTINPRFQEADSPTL

At α4β7 integrin [1], `Cn1ccc(=O)n(-c2ccc(C[C@H](NC(=O)c3c(F)cc(NS(=O)(=O)c4ccc(-n5ccnn5)cc4)cc3F)C(=O)O)cc2)c1=O` [Example 58, N-[2,6-Difluoro-4-({[4-(1H-1,2,3-triazol-1-yl)phenyl]sulfonyl}amino)benzoyl]-4-(3-methyl-2,6-dioxo-3,6-dihydropyrimidin-1(2H)-yl)-L-phenylalanine] showed a Selectivity of 410. Moreover, the results for the IC50 on α4β7 integrin [1], at α4β1 integrin and at α4β7 integrin [2] were 1 nM, 410 nM and 4.8 nM, respectively.
Regarding `COc1cc2c(=O)n(-c3ccc(C[C@H](NC(=O)c4c(F)cc(NS(=O)(=O)c5ccc(-c6ncccn6)cc5)cc4F)C(=O)O)cc3)c(=O)n(C)c2cn1` [Example 46, N-(2,6-Difluoro-4-{[(4-pyrimidin-2-yl-phenyl)sulfonyl]amino}benzoyl)-4-(6-methoxy-1-methyl-2,4-dioxo-1,4-dihydropyrido[3,4-d]pyrimidin-3(2H)-yl)-L-phenylalanine], the Selectivity at α4β7 integrin [1] amounted to 180. Moreover, the IC50 (usually the concentration needed to halve the response being measured) amounted to 1.1 nM at α4β7 integrin [1], 200 nM at α4β1 integrin and 15 nM on α4β7 integrin [2].
On α4β7 integrin [1], `Cn1c(=O)n(-c2ccc(C[C@H](NC(=O)c3c(F)cc(NS(=O)(=O)c4ccc(-n5cncn5)cn4)cc3F)C(=O)O)cc2)c(=O)c2ccncc21` [Example 57, N-[2,6-Difluoro-4-({[5-(1H-1,2,4-triazol-1-yl)pyridin-2-yl]sulfonyl}amino)benzoyl]-4-(1-methyl-2,4-dioxo-1,4-dihydropyrido[3,4-d]pyrimidin-3(2H)-yl)-L-phenylalanine] displayed a Selectivity of 220. The figures for the IC50 at α4β7 integrin [1], on α4β1 integrin and on α4β7 integrin [2] were 0.06 nM, 13 nM and 1.5 nM, respectively.
Taken in the same sequence, the figures for `Cc1cnccc1-c1ccc(S(=O)(=O)Nc2cc(F)c(C(=O)N[C@@H](Cc3ccc(-n4c(=O)c5ccncc5n(C)c4=O)cc3)C(=O)O)c(F)c2)cc1` [Example 65, N-[2,6-Difluoro-4-({[4-(3-methylpyridin-4-yl)phenyl]sulfonyl}amino)benzoyl]-4-(1-methyl-2,4-dioxo-1,4-dihydropyrido[3,4-d]pyrimidin-3(2H)-yl)-L-phenylalanine] were 750, 0.56 nM, 420 nM and 9.7 nM.
Consider `Cn1c(=O)n(-c2ccc(C[C@H](NC(=O)c3c(F)cc(NS(=O)(=O)c4ccc(-c5ccsc5)cc4)cc3F)C(=O)O)cc2)c(=O)c2ccncc21` [Example 53, N-[2,6-Difluoro-4-({[4-(3-thienyl)phenyl]sulfonyl}amino)benzoyl]-4-(1-methyl-2,4-dioxo-1,4-dihydropyrido[3,4-d]pyrimidin-3(2H)-yl)-L-phenylalanine], for which the Selectivity at α4β7 integrin [1] was 260. The figures for the IC50 at α4β7 integrin [1], on α4β1 integrin and at α4β7 integrin [2] were 2.8 nM, 740 nM and 24 nM, respectively.
In the case of `Cn1cnc2c1c(=O)n(-c1ccc(C[C@H](NC(=O)c3c(F)cc(NS(=O)(=O)c4ccc(-c5ccncc5)cc4)cc3F)C(=O)O)cc1)c(=O)n2C` [Example 75, N-(2,6-Difluoro-4-{[(4-pyridin-4-yl-phenyl)sulfonyl]amino}benzoyl)-4-(3,7-dimethyl-2,6-dioxo-2,3,6,7-tetrahydro-1H-purin-1-yl)-L-phenylalanine], the Selectivity on α4β7 integrin [1] is on record as 820. Moreover, the IC50 at α4β7 integrin [1] came to 0.38 nM; at α4β1 integrin it was 310 nM; on α4β7 integrin [2] it was 4.2 nM.
In turn, `Cn1cnc2c1c(=O)n(-c1ccc(C[C@H](NC(=O)c3c(F)cc(NS(=O)(=O)c4ccc(-n5cccc5)cc4)cc3F)C(=O)O)cc1)c(=O)n2C` [Example 76, N-[2,6-Difluoro-4-({[4-(1H-pyrrol-1-yl)phenyl]sulfonyl}amino)benzoyl]-4-(3,7-dimethyl-2,6-dioxo-2,3,6,7-tetrahydro-1H-purin-1-yl)-L-phenylalanine] came in with a Selectivity on α4β7 integrin [1] of 410. Further, the IC50 came to 2.2 nM on α4β7 integrin [1], 910 nM at α4β1 integrin and 22 nM at α4β7 integrin [2].
For `Cn1c(=O)n(-c2ccc(C[C@H](NC(=O)c3c(F)cc(NS(=O)(=O)c4ccc(-c5cncnc5)cn4)cc3F)C(=O)O)cc2)c(=O)c2ccncc21` [Example 54, N-(2,6-Difluoro-4-{[(5-pyrimidin-5-yl-pyridin-2-yl)sulfonyl]amino}benzoyl)-4-(1-methyl-2,4-dioxo-1,4-dihydropyrido[3,4-d]pyrimidin-3(2H)-yl)-L-phenylalanine], the Selectivity on α4β7 integrin [1] worked out at 230. For the same compound, the results for the IC50 on α4β7 integrin [1], at α4β1 integrin and at α4β7 integrin [2] were 0.077 nM, 18 nM and 1.6 nM, respectively.
`CNCc1ccc(S(=O)(=O)Nc2ccc(C(=O)N[C@@H](Cc3ccc(-n4c(=O)c5ccncc5n(C)c4=O)cc3)C(=O)O)c(F)c2)cc1` [Example 52, N-{2-Fluoro-4-[({4-[(methylamino)methyl]phenyl}sulfonyl)amino]benzoyl}-4-(1-methyl-2,4-dioxo-1,4-dihydropyrido[3,4-d]pyrimidin-3(2H)-yl)-L-phenylalanine]: the Selectivity at α4β7 integrin [1] is 210. In addition, the values for the IC50 at α4β7 integrin [1], on α4β1 integrin and on α4β7 integrin [2] were 2.6 nM, 550 nM and 13 nM, respectively.
